# Data: the supplement of paper PMC10307832
# Legend:
# Test in all cases: relative viability (nuclei count vs DMSO), 5 days (fraction); higher = more cells survive
# NCI-H838 = test system: NCI-H838
# In short: (§1)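 Nuclei were stained with Hoechst during a one-step fixation (final 0.05% Triton X-100, 1% formaldehyde, 1 ug/ml Hoechst) carried out 5 days after dosing, then counted on 4× images. The cells, lung cancer lines in 1536-well plates, had been dosed by pin tool the day after seeding with one drug alone or a fixed anchor-drug dose plus five library-drug doses (not always all listed) in √10 steps. Relative viability is the nuclei count in treated wells divided by that in vehicle wells, and each value is the median of duplicate plates.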
# NCI-H358 = test system: NCI-H358
# In short: as §1
# NCI-H1666 = test system: NCI-H1666
# In short: as §1
# NCI-H1944 = test system: NCI-H1944
# In short: as §1
# LCLC-97TM1 = test system: LCLC-97TM1
# In short: as §1
# LU99A = test system: LU99A
# In short: as §1
# HCC-78 = test system: HCC-78
# In short: as §1
# NCI-H1355 = test system: NCI-H1355
# In short: as §1
# NCI-H1975 = test system: NCI-H1975
# In short: as §1
# LXF-289 = test system: LXF-289
# In short: as §1
# NCI-H650 = test system: NCI-H650
# In short: as §1
# LK-2 = test system: LK-2
# In short: as §1
# NCI-H596 = test system: NCI-H596
# In short: as §1
# ChaGo-K-1 = test system: ChaGo-K-1
# In short: as §1
# NCI-H661 = test system: NCI-H661
# In short: as §1
# BEN = test system: BEN
# In short: as §1
# PC-3 [JPC-3] = test system: PC-3 [JPC-3]
# In short: as §1
# NCI-H2342 = test system: NCI-H2342
# In short: as §1
# NCI-H1651 = test system: NCI-H1651
# In short: as §1
# LC-2-ad = test system: LC-2-ad
# In short: as §1
# SK-MES-1 = test system: SK-MES-1
# In short: as §1
# NCI-H2087 = test system: NCI-H2087
# In short: as §1
compound,measurement,setting,value
Nc1ccn([C@@H]2O[C@H](CO)[C@@H](O)[C@@H]2O)c(=O)n1 [Cytarabine] + COc1cccc2cc(-c3nc([C@H]4CC[C@H](C(=O)O)CC4)n4ncnc(N)c34)[nH]c12 [OSI-027] (partner 0.5 µM),relative viability,NCI-H838; first compound 0.005 µM,0.397
same,relative viability,NCI-H838; first compound 0.01581 µM,0.379
same,relative viability,NCI-H838; first compound 0.05 µM,0.4
same,relative viability,NCI-H838; first compound 0.1581 µM,0.273
same,relative viability,NCI-H838; first compound 0.5 µM,0.185
same,relative viability,NCI-H358; first compound 0.005 µM,0.608
same,relative viability,NCI-H358; first compound 0.01581 µM,0.631
same,relative viability,NCI-H358; first compound 0.05 µM,0.35
same,relative viability,NCI-H358; first compound 0.1581 µM,0.104
same,relative viability,NCI-H358; first compound 0.5 µM,0.091
same,relative viability,NCI-H1666; first compound 0.005 µM,0.81
same,relative viability,NCI-H1666; first compound 0.01581 µM,0.729
same,relative viability,NCI-H1666; first compound 0.05 µM,0.798
same,relative viability,NCI-H1666; first compound 0.1581 µM,0.455
same,relative viability,NCI-H1666; first compound 0.5 µM,0.511
same,relative viability,NCI-H1944; first compound 0.005 µM,0.313
same,relative viability,NCI-H1944; first compound 0.01581 µM,0.239
same,relative viability,NCI-H1944; first compound 0.05 µM,0.214
same,relative viability,NCI-H1944; first compound 0.1581 µM,0.155
same,relative viability,NCI-H1944; first compound 0.5 µM,0.133
same,relative viability,LCLC-97TM1; first compound 0.005 µM,0.45
same,relative viability,LCLC-97TM1; first compound 0.01581 µM,0.37
same,relative viability,LCLC-97TM1; first compound 0.05 µM,0.439
same,relative viability,LCLC-97TM1; first compound 0.1581 µM,0.191
same,relative viability,LCLC-97TM1; first compound 0.5 µM,0.139
same,relative viability,LU99A; first compound 0.005 µM,0.287
same,relative viability,LU99A; first compound 0.01581 µM,0.271
same,relative viability,LU99A; first compound 0.05 µM,0.288
same,relative viability,LU99A; first compound 0.1581 µM,0.288
same,relative viability,LU99A; first compound 0.5 µM,0.281
same,relative viability,HCC-78; first compound 0.005 µM,0.368
same,relative viability,HCC-78; first compound 0.01581 µM,0.349
same,relative viability,HCC-78; first compound 0.05 µM,0.314
same,relative viability,HCC-78; first compound 0.1581 µM,0.242
same,relative viability,HCC-78; first compound 0.5 µM,0.258
same,relative viability,NCI-H1355; first compound 0.005 µM,0.41
same,relative viability,NCI-H1355; first compound 0.01581 µM,0.402
same,relative viability,NCI-H1355; first compound 0.05 µM,0.31
same,relative viability,NCI-H1355; first compound 0.1581 µM,0.2
same,relative viability,NCI-H1355; first compound 0.5 µM,0.21
same,relative viability,NCI-H1975; first compound 0.005 µM,0.532
same,relative viability,NCI-H1975; first compound 0.01581 µM,0.775
same,relative viability,NCI-H1975; first compound 0.05 µM,0.917
same,relative viability,NCI-H1975; first compound 0.1581 µM,0.6
same,relative viability,NCI-H1975; first compound 0.5 µM,0.315
same,relative viability,LXF-289; first compound 0.005 µM,0.671
same,relative viability,LXF-289; first compound 0.01581 µM,0.634
same,relative viability,LXF-289; first compound 0.05 µM,0.419
same,relative viability,LXF-289; first compound 0.1581 µM,0.237
same,relative viability,LXF-289; first compound 0.5 µM,0.113
same,relative viability,NCI-H650; first compound 0.005 µM,0.438
same,relative viability,NCI-H650; first compound 0.01581 µM,0.424
same,relative viability,NCI-H650; first compound 0.05 µM,0.235
same,relative viability,NCI-H650; first compound 0.1581 µM,0.194
same,relative viability,NCI-H650; first compound 0.5 µM,0.206
same,relative viability,LK-2; first compound 0.005 µM,0.194
same,relative viability,LK-2; first compound 0.01581 µM,0.175
same,relative viability,LK-2; first compound 0.05 µM,0.205
same,relative viability,LK-2; first compound 0.1581 µM,0.156
same,relative viability,LK-2; first compound 0.5 µM,0.154
same,relative viability,NCI-H596; first compound 0.005 µM,0.682
same,relative viability,NCI-H596; first compound 0.01581 µM,0.702
same,relative viability,NCI-H596; first compound 0.05 µM,0.592
same,relative viability,NCI-H596; first compound 0.1581 µM,0.418
same,relative viability,NCI-H596; first compound 0.5 µM,0.317
same,relative viability,ChaGo-K-1; first compound 0.005 µM,0.465
same,relative viability,ChaGo-K-1; first compound 0.01581 µM,0.353
same,relative viability,ChaGo-K-1; first compound 0.05 µM,0.247
same,relative viability,ChaGo-K-1; first compound 0.1581 µM,0.165
same,relative viability,ChaGo-K-1; first compound 0.5 µM,0.212
same,relative viability,NCI-H661; first compound 0.005 µM,0.559
same,relative viability,NCI-H661; first compound 0.01581 µM,0.617
same,relative viability,NCI-H661; first compound 0.05 µM,0.545
same,relative viability,NCI-H661; first compound 0.1581 µM,0.413
same,relative viability,NCI-H661; first compound 0.5 µM,0.363
same,relative viability,BEN; first compound 0.005 µM,0.5
same,relative viability,BEN; first compound 0.01581 µM,0.315
same,relative viability,BEN; first compound 0.05 µM,0.309
same,relative viability,BEN; first compound 0.1581 µM,0.263
same,relative viability,BEN; first compound 0.5 µM,0.217
same,relative viability,PC-3 [JPC-3]; first compound 0.005 µM,0.607
same,relative viability,PC-3 [JPC-3]; first compound 0.01581 µM,0.721
same,relative viability,PC-3 [JPC-3]; first compound 0.05 µM,0.727
same,relative viability,PC-3 [JPC-3]; first compound 0.1581 µM,0.499
same,relative viability,PC-3 [JPC-3]; first compound 0.5 µM,0.454
same,relative viability,NCI-H2342; first compound 0.005 µM,0.511
same,relative viability,NCI-H2342; first compound 0.01581 µM,0.591
same,relative viability,NCI-H2342; first compound 0.05 µM,0.511
same,relative viability,NCI-H2342; first compound 0.1581 µM,0.549
same,relative viability,NCI-H2342; first compound 0.5 µM,0.459
same,relative viability,NCI-H1651; first compound 0.005 µM,0.792
same,relative viability,NCI-H1651; first compound 0.01581 µM,0.675
same,relative viability,NCI-H1651; first compound 0.05 µM,0.81
same,relative viability,NCI-H1651; first compound 0.1581 µM,0.442
same,relative viability,NCI-H1651; first compound 0.5 µM,0.298
same,relative viability,LC-2-ad; first compound 0.005 µM,0.734
same,relative viability,LC-2-ad; first compound 0.01581 µM,0.69
same,relative viability,LC-2-ad; first compound 0.05 µM,0.539
same,relative viability,LC-2-ad; first compound 0.1581 µM,0.344
same,relative viability,LC-2-ad; first compound 0.5 µM,0.318
same,relative viability,SK-MES-1; first compound 0.005 µM,0.343
same,relative viability,SK-MES-1; first compound 0.01581 µM,0.282
same,relative viability,SK-MES-1; first compound 0.05 µM,0.18
same,relative viability,SK-MES-1; first compound 0.1581 µM,0.297
same,relative viability,SK-MES-1; first compound 0.5 µM,0.267
same,relative viability,NCI-H2087; first compound 0.005 µM,0.406
same,relative viability,NCI-H2087; first compound 0.01581 µM,0.485
same,relative viability,NCI-H2087; first compound 0.05 µM,0.416
same,relative viability,NCI-H2087; first compound 0.1581 µM,0.192
same,relative viability,NCI-H2087; first compound 0.5 µM,0.121
